Calls of active or inactive are those of the source. The calls are words filed in the database; no cut-off is given here.
Key:
Mus musculus [1] = test: Antifibrotic activity against BDL-induced C57BL/6J mouse hepatic fibrosis model assessed as improvement in histological changes at 15 to 30 mg/kg, po administered via gavage starting from 3 days post-BDL; assay type: functional, organism-based; conditions: dose 15-30 mg/kg
LX-2 [2] = test: Inhibition of TGFbeta1-induced AKT phosphorylation in human LX-2 cells preincubated for 2 hrs followed by […] stimulation and measured after 2 hrs by Western blot analysis; assay type: cell-based; conditions: dose 5-20 µM, time 4.0 hrs
[3] = target: Mothers against decapentaplegic homolog 2 (Homo sapiens) (UniProt Q15796); test: Inhibition of TGFbeta1-induced Smad2 phosphorylation in human LX-2 cells preincubated for 2 hrs followed by […] stimulation and measured after 2 hrs by Western blot analysis; assay type: cell-based; conditions: dose 5-20 µM, time 4.0 hrs
RAW264.7 [4] = test: Inhibition of LPS-induced NFkappaB transcriptional activity in mouse RAW264.7 cells at 10 uM preincubated for 2 hrs followed by LPS stimulation and measured after 6 hrs by luciferase reporter gene assay relative to control; assay type: cell-based; conditions: time 8.0 hrs
Mus musculus [5] = test: In vivo inhibition of AKT phosphorylation in CCL4-induced C57BL/6J mouse hepatic fibrosis model at 15 to 30 mg/kg, po administered via gavage for 4 weeks starting from 5th week of CCL4 stimulation by Western blot analysis; assay type: functional, organism-based; conditions: dose 15-30 mg/kg
RAW264.7 [6] = test: Antiinflammatory activity in mouse RAW264.7 cells assessed as inhibition of LPS-induced collagen 1 expression at 5 to 20 uM preincubated for 2 hrs followed by LPS stimulation and measured after 48 hrs by Western blot analysis; assay type: functional, cell-based; conditions: dose 5-20 µM, time 50.0 hrs
RAW264.7 [7] = test: Inhibition of LPS-induced NFkappaB transcriptional activity in mouse RAW264.7 cells at 5 uM preincubated for 2 hrs followed by LPS stimulation and measured after 6 hrs by luciferase reporter gene assay relative to control; assay type: cell-based; conditions: time 8.0 hrs
Mus musculus [8] = test: In vivo inhibition of ERK1/2 phosphorylation in BDL-induced C57BL/6J mouse hepatic fibrosis model at 15 to 30 mg/kg, po administered via gavage starting from 3 days post-BDL by Western blot analysis; assay type: functional, organism-based; conditions: dose 15-30 mg/kg
Mus musculus [9] = test: Antifibrotic activity against BDL-induced C57BL/6J mouse hepatic fibrosis model assessed as reduction in alphaSMA expression in liver at 15 to 30 mg/kg, po administered via gavage starting from 3 days post-BDL by Western blot analysis; assay type: functional, organism-based; conditions: dose 15-30 mg/kg
Mus musculus [10] = test: Antifibrotic activity against CCL4-induced C57BL/6J mouse hepatic fibrosis model assessed as reduction in necrosis of hepatocytes at 15 to 30 mg/kg, po administered via gavage for 4 weeks starting from 5th week of CCL4 stimulation by H and E staining based histopathological analysis; assay type: functional, organism-based; conditions: dose 15-30 mg/kg
Mus musculus [11] = test: Antifibrotic activity against CCL4-induced C57BL/6J mouse hepatic fibrosis model assessed as reduction in liver edema at 15 to 30 mg/kg, po administered via gavage for 4 weeks starting from 5th week of CCL4 stimulation by H and E staining based histopathological analysis; assay type: functional, organism-based; conditions: dose 15-30 mg/kg
Mus musculus [12] = test: Antifibrotic activity against CCL4-induced C57BL/6J mouse hepatic fibrosis model assessed as reduction in infiltration of inflammatory cells in liver at 15 to 30 mg/kg, po administered via gavage for 4 weeks starting from 5th week of CCL4 stimulation by H and E staining based histopathological analysis; assay type: functional, organism-based; conditions: dose 15-30 mg/kg
Mus musculus [13] = test: Antifibrotic activity against CCL4-induced C57BL/6J mouse hepatic fibrosis model assessed as reduction in alphaSMA expression in liver at 15 to 30 mg/kg, po administered via gavage for 4 weeks starting from 5th week of CCL4 stimulation by immunohistochemical staining based assay; assay type: functional, organism-based; conditions: dose 15-30 mg/kg
LX-2 [14] = test: Inhibition of FBS-induced cell migration in human LX-2 cells assessed as reduction in number of migrated cells measured after 24 hrs by crystal violet staining based transwell assay; assay type: functional; conditions: dose 5-20 µM
[15] = target: Nuclear factor NF-kappa-B complex (Homo sapiens) (UniProt Q00653+P19838+Q04206); test: Inhibition of LPS-induced NFkappaB activation in human LX-2 cells assessed as reduction in p65 phosphorylation preincubated for 2 hrs followed by LPS stimulation and measured after 2 hrs by Western blot analysis; assay type: cell-based; conditions: dose 5-20 µM, time 4.0 hrs
Mus musculus [16] = test: In vivo inhibition of ERK1/2 phosphorylation in CCL4-induced C57BL/6J mouse hepatic fibrosis model at 15 to 30 mg/kg, po administered via gavage for 4 weeks starting from 5th week of CCL4 stimulation by Western blot analysis; assay type: functional, organism-based; conditions: dose 15-30 mg/kg
Mus musculus [17] = test: Antifibrotic activity against CCL4-induced C57BL/6J mouse hepatic fibrosis model assessed as reduction in collagen deposition in liver at 15 to 30 mg/kg, po administered via gavage for 4 weeks starting from 5th week of CCL4 stimulation by Sirius red and Masson's trichrome staining based assay; assay type: functional, organism-based; conditions: dose 15-30 mg/kg
Mus musculus [18] = test: Antifibrotic activity against CCL4-induced C57BL/6J mouse hepatic fibrosis model assessed as reduction in alphaSMA expression in liver at 15 to 30 mg/kg, po administered via gavage for 4 weeks starting from 5th week of CCL4 stimulation by Western blot analysis; assay type: functional, organism-based; conditions: dose 15-30 mg/kg
Mus musculus [19] = test: In vivo inhibition of JNK phosphorylation in BDL-induced C57BL/6J mouse hepatic fibrosis model at 15 to 30 mg/kg, po administered via gavage starting from 3 days post-BDL by Western blot analysis; assay type: functional, organism-based; conditions: dose 15-30 mg/kg
Mus musculus [20] = test: Antifibrotic activity against CCL4-induced C57BL/6J mouse hepatic fibrosis model assessed as reduction in rough surface of liver at 15 to 30 mg/kg, po administered via gavage for 4 weeks starting from 5th week of CCL4 stimulation; assay type: functional, organism-based; conditions: dose 15-30 mg/kg
Mus musculus [21] = test: In vivo inhibition of p65 phosphorylation in BDL-induced C57BL/6J mouse hepatic fibrosis model at 15 to 30 mg/kg, po administered via gavage starting from 3 days post-BDL by Western blot analysis; assay type: functional, organism-based; conditions: dose 15-30 mg/kg
RAW264.7 [22] = test: Antiinflammatory activity in mouse RAW264.7 cells assessed as inhibition of TGFbeta1-induced collagen 1 mRNA expression at 5 to 20 uM preincubated for 2 hrs […] and measured after 48 hrs by qRT-PCR analysis; assay type: functional, cell-based; conditions: dose 5-20 µM, time 50.0 hrs
RAW264.7 [23] = test: Antiinflammatory activity in mouse RAW264.7 cells assessed as inhibition of TGFbeta1-induced alpha-SMA mRNA expression at 5 to 20 uM preincubated for 2 hrs […] and measured after 48 hrs by qRT-PCR analysis; assay type: functional, cell-based; conditions: dose 5-20 µM, time 50.0 hrs
[24] = target: Mothers against decapentaplegic homolog 3 (Homo sapiens) (UniProt P84022); test: Inhibition of TGFbeta1-induced Smad3 phosphorylation in human LX-2 cells preincubated for 2 hrs followed by […] stimulation and measured after 2 hrs by Western blot analysis; assay type: cell-based; conditions: dose 5-20 µM, time 4.0 hrs
Mus musculus [25] = test: Antifibrotic activity against BDL-induced C57BL/6J mouse hepatic fibrosis model assessed as reduction in collagen 1 mRNA expression in liver at 15 to 30 mg/kg, po administered via gavage starting from 3 days post-BDL by qRT-PCR analysis; assay type: functional, organism-based; conditions: dose 15-30 mg/kg
Mus musculus [26] = test: In vivo inhibition of Smad2 phosphorylation in CCL4-induced C57BL/6J mouse hepatic fibrosis model at 15 to 30 mg/kg, po administered via gavage for 4 weeks starting from 5th week of CCL4 stimulation by Western blot analysis; assay type: functional, organism-based; conditions: dose 15-30 mg/kg
Mus musculus [27] = test: In vivo inhibition of p38 phosphorylation in CCL4-induced C57BL/6J mouse hepatic fibrosis model at 15 to 30 mg/kg, po administered via gavage for 4 weeks starting from 5th week of CCL4 stimulation by Western blot analysis; assay type: functional, organism-based; conditions: dose 15-30 mg/kg

Sequence of Mothers against decapentaplegic homolog 2 (Homo sapiens) (Q15796 whole entry): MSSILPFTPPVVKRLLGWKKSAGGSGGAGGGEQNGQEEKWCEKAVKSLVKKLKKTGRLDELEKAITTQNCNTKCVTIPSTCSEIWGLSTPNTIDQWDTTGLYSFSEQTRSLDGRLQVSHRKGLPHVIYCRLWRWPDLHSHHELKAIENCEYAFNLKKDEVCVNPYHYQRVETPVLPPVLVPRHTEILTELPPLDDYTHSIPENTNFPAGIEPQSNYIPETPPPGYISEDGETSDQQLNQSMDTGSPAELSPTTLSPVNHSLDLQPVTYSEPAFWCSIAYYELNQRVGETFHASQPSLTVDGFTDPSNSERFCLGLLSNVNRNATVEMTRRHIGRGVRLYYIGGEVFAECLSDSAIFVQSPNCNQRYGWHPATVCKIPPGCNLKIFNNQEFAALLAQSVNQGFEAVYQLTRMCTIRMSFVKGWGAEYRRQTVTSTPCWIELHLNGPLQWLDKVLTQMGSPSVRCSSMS
Sequence of Nuclear factor NF-kappa-B complex (Homo sapiens) (P19838 whole entry, looked up): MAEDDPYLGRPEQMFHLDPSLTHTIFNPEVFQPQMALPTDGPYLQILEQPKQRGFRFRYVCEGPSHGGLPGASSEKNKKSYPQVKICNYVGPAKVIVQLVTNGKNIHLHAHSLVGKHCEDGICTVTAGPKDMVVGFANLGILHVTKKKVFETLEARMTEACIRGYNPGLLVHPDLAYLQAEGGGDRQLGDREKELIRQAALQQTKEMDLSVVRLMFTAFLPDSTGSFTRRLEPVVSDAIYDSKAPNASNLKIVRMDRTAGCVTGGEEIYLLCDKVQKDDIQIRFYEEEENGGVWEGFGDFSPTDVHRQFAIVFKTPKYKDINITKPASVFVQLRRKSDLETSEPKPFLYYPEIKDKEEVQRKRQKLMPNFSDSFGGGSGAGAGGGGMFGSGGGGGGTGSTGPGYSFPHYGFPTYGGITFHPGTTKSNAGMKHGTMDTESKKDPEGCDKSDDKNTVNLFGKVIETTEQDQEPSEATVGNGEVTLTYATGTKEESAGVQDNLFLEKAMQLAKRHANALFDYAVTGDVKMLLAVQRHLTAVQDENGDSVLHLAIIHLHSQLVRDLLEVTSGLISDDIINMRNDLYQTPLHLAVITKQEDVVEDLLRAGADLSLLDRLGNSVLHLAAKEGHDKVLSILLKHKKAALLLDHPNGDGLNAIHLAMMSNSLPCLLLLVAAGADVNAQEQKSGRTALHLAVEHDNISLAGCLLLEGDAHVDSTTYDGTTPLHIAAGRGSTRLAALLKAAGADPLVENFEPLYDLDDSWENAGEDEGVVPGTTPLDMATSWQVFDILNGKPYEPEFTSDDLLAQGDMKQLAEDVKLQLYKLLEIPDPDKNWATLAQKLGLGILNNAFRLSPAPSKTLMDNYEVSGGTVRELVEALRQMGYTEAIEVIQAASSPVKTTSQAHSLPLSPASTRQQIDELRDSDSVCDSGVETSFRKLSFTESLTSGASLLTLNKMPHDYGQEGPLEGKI
Sequence of Nuclear factor NF-kappa-B complex (Homo sapiens) (Q00653 whole entry, looked up): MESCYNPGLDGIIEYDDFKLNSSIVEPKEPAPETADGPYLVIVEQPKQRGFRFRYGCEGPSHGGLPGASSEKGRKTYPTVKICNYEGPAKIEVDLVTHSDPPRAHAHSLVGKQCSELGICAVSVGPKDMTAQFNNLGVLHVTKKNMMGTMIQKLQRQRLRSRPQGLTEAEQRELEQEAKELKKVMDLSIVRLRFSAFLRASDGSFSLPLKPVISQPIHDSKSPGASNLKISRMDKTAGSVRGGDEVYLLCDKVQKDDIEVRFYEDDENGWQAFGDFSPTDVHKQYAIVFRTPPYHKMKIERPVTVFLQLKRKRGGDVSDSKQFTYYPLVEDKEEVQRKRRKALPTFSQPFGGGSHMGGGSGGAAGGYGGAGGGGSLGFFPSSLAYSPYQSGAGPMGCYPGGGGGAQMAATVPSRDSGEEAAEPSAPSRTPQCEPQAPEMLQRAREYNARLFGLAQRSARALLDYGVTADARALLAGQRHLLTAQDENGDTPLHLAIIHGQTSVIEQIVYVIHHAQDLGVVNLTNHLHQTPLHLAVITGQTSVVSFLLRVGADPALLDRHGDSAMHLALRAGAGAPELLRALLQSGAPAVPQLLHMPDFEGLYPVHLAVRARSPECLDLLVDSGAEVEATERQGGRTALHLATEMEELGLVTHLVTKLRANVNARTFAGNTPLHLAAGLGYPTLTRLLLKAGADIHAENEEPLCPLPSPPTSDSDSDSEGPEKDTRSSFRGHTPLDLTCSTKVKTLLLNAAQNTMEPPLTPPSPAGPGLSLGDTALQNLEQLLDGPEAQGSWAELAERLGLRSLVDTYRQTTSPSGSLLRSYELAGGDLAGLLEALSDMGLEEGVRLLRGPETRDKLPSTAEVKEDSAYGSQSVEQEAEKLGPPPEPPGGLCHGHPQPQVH
Sequence of Nuclear factor NF-kappa-B complex (Homo sapiens) (Q04206 whole entry, looked up): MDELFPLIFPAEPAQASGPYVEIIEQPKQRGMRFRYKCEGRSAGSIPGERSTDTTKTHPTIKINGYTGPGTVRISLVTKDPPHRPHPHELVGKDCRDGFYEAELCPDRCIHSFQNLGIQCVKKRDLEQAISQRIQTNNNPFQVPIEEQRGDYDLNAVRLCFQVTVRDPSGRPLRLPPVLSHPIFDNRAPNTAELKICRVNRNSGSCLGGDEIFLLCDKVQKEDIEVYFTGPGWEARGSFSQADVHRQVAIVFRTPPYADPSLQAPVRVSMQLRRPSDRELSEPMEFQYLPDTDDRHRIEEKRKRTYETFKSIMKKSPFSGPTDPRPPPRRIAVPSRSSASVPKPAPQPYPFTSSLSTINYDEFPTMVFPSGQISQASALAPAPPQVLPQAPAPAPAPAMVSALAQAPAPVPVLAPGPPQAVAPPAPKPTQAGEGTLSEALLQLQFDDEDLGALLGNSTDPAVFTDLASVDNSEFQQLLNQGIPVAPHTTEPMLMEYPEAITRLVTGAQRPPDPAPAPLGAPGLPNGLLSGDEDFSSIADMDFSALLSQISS
Sequence of Mothers against decapentaplegic homolog 3 (Homo sapiens) (P84022 2-425 limits assumed): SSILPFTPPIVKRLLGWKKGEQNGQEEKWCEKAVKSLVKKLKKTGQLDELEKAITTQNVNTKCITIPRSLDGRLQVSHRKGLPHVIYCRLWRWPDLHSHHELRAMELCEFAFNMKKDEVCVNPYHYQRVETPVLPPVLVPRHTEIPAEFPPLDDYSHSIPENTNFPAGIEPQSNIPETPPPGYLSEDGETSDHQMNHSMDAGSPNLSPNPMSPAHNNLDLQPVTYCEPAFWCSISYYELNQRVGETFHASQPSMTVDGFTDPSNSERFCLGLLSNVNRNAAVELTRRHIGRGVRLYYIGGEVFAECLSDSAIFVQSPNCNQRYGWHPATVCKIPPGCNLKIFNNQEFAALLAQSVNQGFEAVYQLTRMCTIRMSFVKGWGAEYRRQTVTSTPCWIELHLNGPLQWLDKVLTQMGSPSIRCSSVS

Compound: COC(=O)CCC[C@@H]1[C@H]2CCCN3CCC[C@H](CN1C(=O)C(C)c1ccc(-c4ccccc4)c(F)c1)[C@@H]23 (some centres not stated)
- Activity (Mus musculus [1]): Active
- inhibition (LX-2 [2]): Dose-dependent-effect
- inhibition [3]: Dose-dependent-effect
- fold change (FC) (RAW264.7 [4]): 0.71
- inhibition (Mus musculus [5]): Active
- inhibition (RAW264.7 [6]): Active
- fold change (FC) (RAW264.7 [7]): 0.86
- inhibition (Mus musculus [8]): inactive
- Activity (Mus musculus [9]): Active
- Activity (Mus musculus [10]): Active
- Activity (Mus musculus [11]): Active
- Activity (Mus musculus [12]): Active
- Activity (Mus musculus [13]): Active
- inhibition (LX-2 [14]): Dose-dependent-effect
- inhibition [15]: Dose-dependent-effect
- inhibition (Mus musculus [16]): inactive
- Activity (Mus musculus [17]): Active; Dramatically Decreased The Collagen Deposition
- Activity (Mus musculus [18]): Active
- inhibition (Mus musculus [19]): inactive
- Activity (Mus musculus [20]): Active; Significant Alleviation Observed
- inhibition (Mus musculus [21]): Active
- inhibition (RAW264.7 [22]): Active
- inhibition (RAW264.7 [23]): Active
- inhibition [24]: Dose-dependent-effect
- Activity (Mus musculus [25]): Active
- inhibition (Mus musculus [26]): Active
- inhibition (Mus musculus [27]): inactive

From ChEMBL document CHEMBL6177933, “Discovery of Sophoridine α-Aryl Propionamide Derivative ZM600 as a Novel Antihepatic Fibrosis Agent” (J Med Chem, 2024)
